Experimental data taken from the supplement of paper PMC10307832.

Columns and labels:
Assay in all cases: relative viability (nuclei count vs DMSO), 5 days (fraction); higher = more cells survive
[1] = compound: CC1=C(C(=O)N2C=CSC2=N1)CCN3CCC(=C(C4=CC=CC=C4)C5=CC=C(C=C5)F)CC3
Summary of the method: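 Lung cancer cell lines in 1536-well plates were exposed by pinning to five library-drug doses (not always all listed) √10 apart, following an overnight hold at 37 °C. MetaXpress counted Hoechst-stained nuclei from 4× images taken after 5 days without medium change. Viability is the median ratio of treated-well to vehicle-well nuclei across plates. Plates required control CV below 25% and at least one doubling.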

[2] = compound: CC1=C(C(=O)N2C=CSC2=N1)CCN3CCC(=C(C4=CC=CC=C4)C5=CC=C(C=C5)F)CC3 + CC(=O)Nc1cccc(-n2c(=O)n(C3CC3)c(=O)c3c(Nc4ccc(I)cc4F)n(C)c(=O)c(C)c32)c1 [Trametinib] (partner 0.02 µM)
Summary of the method: (§1)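 One day after seeding in 1536-well plates, lung cancer cell lines were dosed by pin tool. Dosing was either single-drug or a fixed anchor-drug dose plus five library-drug doses (not always all listed) in √10 steps. After 5 days, nuclei were stained in one fix-and-stain step and counted on 4× images, and relative viability is the nuclei count of treated wells over that of vehicle wells, given as the median of duplicate plates.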

[3] = compound: CC1=C(C(=O)N2C=CSC2=N1)CCN3CCC(=C(C4=CC=CC=C4)C5=CC=C(C=C5)F)CC3 + CC(=O)c1c(C)c2cnc(Nc3ccc(N4CCNCC4)cn3)nc2n(C2CCCC2)c1=O [Palbociclib] (partner 0.5 µM)
Summary of the method: as §1

[4] = compound: CC1=C(C(=O)N2C=CSC2=N1)CCN3CCC(=C(C4=CC=CC=C4)C5=CC=C(C=C5)F)CC3 + CCNC(=O)c1noc(-c2cc(C(C)C)c(O)cc2O)c1-c1ccc(CN2CCOCC2)cc1 [Luminespib] (partner 0.01 µM)
Summary of the method: as §1

[5] = compound: CC1=C(C(=O)N2C=CSC2=N1)CCN3CCC(=C(C4=CC=CC=C4)C5=CC=C(C=C5)F)CC3 + COc1cccc2cc(-c3nc([C@H]4CC[C@H](C(=O)O)CC4)n4ncnc(N)c34)[nH]c12 [OSI-027] (partner 0.5 µM)
Summary of the method: as §1

[6] = compound: CC1=C(C(=O)N2C=CSC2=N1)CCN3CCC(=C(C4=CC=CC=C4)C5=CC=C(C=C5)F)CC3 + Cc1cc(Nc2cc(N3CCN(C)CC3)nc(Sc3ccc(NC(=O)C4CC4)cc3)n2)n[nH]1 [Tozasertib] (partner 0.1 µM)
Summary of the method: as §1

[7] = compound: CC1=C(C(=O)N2C=CSC2=N1)CCN3CCC(=C(C4=CC=CC=C4)C5=CC=C(C=C5)F)CC3 + Cc1nc(Nc2ncc(C(=O)Nc3c(C)cccc3Cl)s2)cc(N2CCN(CCO)CC2)n1 [Dasatinib] (partner 0.075 µM)
Summary of the method: as §1

[8] = compound: CC1=C(C(=O)N2C=CSC2=N1)CCN3CCC(=C(C4=CC=CC=C4)C5=CC=C(C=C5)F)CC3 + N=C(N)NC(=N)NCCc1ccccc1 [Phenformin] (partner 250 µM)
Summary of the method: as §1

[9] = compound: CC1=C(C(=O)N2C=CSC2=N1)CCN3CCC(=C(C4=CC=CC=C4)C5=CC=C(C=C5)F)CC3 + NC(=O)Nc1cc(-c2cccc(F)c2)sc1C(=O)N[C@H]1CCCNC1 [AZD7762] (partner 0.2 µM)
Summary of the method: as §1

[10] = compound: CC1=C(C(=O)N2C=CSC2=N1)CCN3CCC(=C(C4=CC=CC=C4)C5=CC=C(C=C5)F)CC3 + Nc1nc2[nH]cc(CCc3ccc(C(=O)N[C@@H](CCC(=O)O)C(=O)O)cc3)c2c(=O)[nH]1 [Pemetrexed] (partner 0.2 µM)
Summary of the method: as §1

[11] = compound: CC1=C(C(=O)N2C=CSC2=N1)CCN3CCC(=C(C4=CC=CC=C4)C5=CC=C(C=C5)F)CC3 + Nc1ncn([C@H]2C[C@H](O)[C@@H](CO)O2)c(=O)n1 [Decitabine] (partner 2 µM)
Summary of the method: as §1

[12] = compound: CC1=C(C(=O)N2C=CSC2=N1)CCN3CCC(=C(C4=CC=CC=C4)C5=CC=C(C=C5)F)CC3 + O=C(CCCCCCC(=O)Nc1ccccc1)NO [Vorinostat] (partner 1 µM)
Summary of the method: as §1

[13] = compound: CC1=C(C(=O)N2C=CSC2=N1)CCN3CCC(=C(C4=CC=CC=C4)C5=CC=C(C=C5)F)CC3 + O=C(c1cc(Cc2n[nH]c(=O)c3ccccc23)ccc1F)N1CCN(C(=O)C2CC2)CC1 [Olaparib] (partner 8 µM)
Summary of the method: as §1

## NCI-H522
[1]; 0.08 µM
  relative viability: 1.15
[1]; 0.253 µM
  relative viability: 1.02
[1]; 0.8 µM
  relative viability: 0.834
[1]; 2.53 µM
  relative viability: 0.863
[1]; 8 µM
  relative viability: 0.774
[2]; first compound 0.08 µM
  relative viability: 0.758
[2]; first compound 0.253 µM
  relative viability: 0.74
[2]; first compound 0.8 µM
  relative viability: 0.7
[2]; first compound 2.53 µM
  relative viability: 0.758
[2]; first compound 8 µM
  relative viability: 0.778
[3]; first compound 0.08 µM
  relative viability: 1.08
[3]; first compound 0.253 µM
  relative viability: 1.09
[3]; first compound 0.8 µM
  relative viability: 0.809
[3]; first compound 2.53 µM
  relative viability: 0.977
[3]; first compound 8 µM
  relative viability: 0.933
[4]; first compound 0.08 µM
  relative viability: 1.18
[4]; first compound 0.253 µM
  relative viability: 1.16
[4]; first compound 0.8 µM
  relative viability: 1.21
[4]; first compound 2.53 µM
  relative viability: 1.2
[4]; first compound 8 µM
  relative viability: 0.897
[5]; first compound 0.08 µM
  relative viability: 0.857
[5]; first compound 0.253 µM
  relative viability: 0.804
[5]; first compound 0.8 µM
  relative viability: 0.766
[5]; first compound 2.53 µM
  relative viability: 0.633
[5]; first compound 8 µM
  relative viability: 0.811
[6]; first compound 0.08 µM
  relative viability: 0.551
[6]; first compound 0.253 µM
  relative viability: 0.92
[6]; first compound 0.8 µM
  relative viability: 0.555
[6]; first compound 2.53 µM
  relative viability: 0.523
[6]; first compound 8 µM
  relative viability: 0.583
[7]; first compound 0.08 µM
  relative viability: 0.901
[7]; first compound 0.253 µM
  relative viability: 0.549
[7]; first compound 0.8 µM
  relative viability: 0.998
[7]; first compound 2.53 µM
  relative viability: 0.855
[7]; first compound 8 µM
  relative viability: 0.733
[8]; first compound 0.08 µM
  relative viability: 0.769
[8]; first compound 0.253 µM
  relative viability: 0.627
[8]; first compound 0.8 µM
  relative viability: 0.677
[8]; first compound 2.53 µM
  relative viability: 0.607
[8]; first compound 8 µM
  relative viability: 0.566
[9]; first compound 0.08 µM
  relative viability: 0.927
[9]; first compound 0.253 µM
  relative viability: 0.874
[9]; first compound 0.8 µM
  relative viability: 0.789
[9]; first compound 2.53 µM
  relative viability: 0.721
[9]; first compound 8 µM
  relative viability: 0.747
[10]; first compound 0.08 µM
  relative viability: 0.958
[10]; first compound 0.253 µM
  relative viability: 0.997
[10]; first compound 0.8 µM
  relative viability: 0.964
[10]; first compound 2.53 µM
  relative viability: 0.914
[10]; first compound 8 µM
  relative viability: 0.764
[11]; first compound 0.08 µM
  relative viability: 0.729
[11]; first compound 0.253 µM
  relative viability: 0.629
[11]; first compound 0.8 µM
  relative viability: 0.793
[11]; first compound 2.53 µM
  relative viability: 0.592
[11]; first compound 8 µM
  relative viability: 0.686
[12]; first compound 0.08 µM
  relative viability: 0.69
[12]; first compound 0.253 µM
  relative viability: 0.86
[12]; first compound 0.8 µM
  relative viability: 1.03
[12]; first compound 2.53 µM
  relative viability: 1.08
[12]; first compound 8 µM
  relative viability: 0.736
[13]; first compound 0.08 µM
  relative viability: 0.622
[13]; first compound 0.253 µM
  relative viability: 0.732
[13]; first compound 0.8 µM
  relative viability: 0.647
[13]; first compound 2.53 µM
  relative viability: 0.664
[13]; first compound 8 µM
  relative viability: 0.513
